This note sets out measurements from patent US12577234B2, “Antagonists of the muscarinic acetylcholine receptor M4” (Vanderbilt University, priority 2017, dated 2026).

The term IC50 denotes the concentration at which inhibition is half-maximal.

The target of this assay is T1, human mAChR M4 (Homo sapiens, UniProt P08173).
T1 construct: expressed in transfected cells; host or cells: CHO-K1 (ATCC), stably co-expressing chimeric G protein Gqi5
T1 sequence (P08173 1-479): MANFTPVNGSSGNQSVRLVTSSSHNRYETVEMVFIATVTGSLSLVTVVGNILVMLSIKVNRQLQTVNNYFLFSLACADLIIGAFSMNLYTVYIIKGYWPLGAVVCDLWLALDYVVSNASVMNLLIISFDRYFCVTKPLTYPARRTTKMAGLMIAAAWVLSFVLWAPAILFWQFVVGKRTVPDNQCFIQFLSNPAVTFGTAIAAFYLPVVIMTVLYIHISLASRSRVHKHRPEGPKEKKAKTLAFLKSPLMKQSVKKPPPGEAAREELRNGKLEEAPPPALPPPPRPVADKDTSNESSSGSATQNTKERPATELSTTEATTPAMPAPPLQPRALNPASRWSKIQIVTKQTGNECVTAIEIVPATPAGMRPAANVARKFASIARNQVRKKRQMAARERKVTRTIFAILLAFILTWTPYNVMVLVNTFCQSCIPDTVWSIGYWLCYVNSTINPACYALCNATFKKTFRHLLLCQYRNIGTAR
As to the kind of experiment: mAChR M4 cell-based functional assay (calcium mobilization, EC80 acetylcholine), human M4. The following applies: for Emin: human M4, % ACh maximum at 30 μM. In a few lines:
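CHO-K1 cells stably expressing human M4 with chimeric Gqi5; intracellular calcium rise read on FDSS as fluorescence static ratio at 1 Hz. Compounds in 10-point 1:3 dilution series; IC50 taken as concentration-dependent decrease of the EC80 acetylcholine response, four-parameter logistic fit.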
For orientation: Calcium assays in cells follow changes in intracellular calcium, usually with a dye or a luminescent sensor.

[1] abbreviates: Table 9, M4/Gqi5/CHO-K1 cells, decrease of EC80 acetylcholine response.
Where [2] appears, read: Table 10, M4/Gqi5/CHO-K1 cells, decrease of EC80 acetylcholine response.

SMILES strings stand for the structures.

As for `Cc1cnn(C)c1-c1ccc(N[C@H]2C[C@@H]3CN(CC4CCCCC4)C[C@@H]3C2)nn1` [Compound 20, (3aR,5s,6aS)-2-(cyclohexylmethyl)-N-[6-(2,4-dimethylpyrazol-3-yl)pyridazin-3-yl]-3,3a,4,5,6,6a-hexahydro-1H-cyclopenta[c]pyrrol-5-amine], the IC50 under setting [1] is 0.001 µM. Under “Table 9”, the Emin is recorded as 7.16%.
Turning to `Fc1ccc(Cl)c(-c2ccc(N[C@@H]3C[C@@H]4CN(CC5CCOCC5)C[C@@H]4C3)nn2)c1` [Compound 159, (3aR,5r,6aS)-N-[6-(2-chloro-5-fluoro-phenyl)pyridazin-3-yl]-2-(tetrahydropyran-4-ylmethyl)-3,3a,4,5,6,6a-hexahydro-1H-cyclopenta[c]pyrrol-5-amine], for the setting “Table 10”, the “Human M4 Emin” value is reported as 4%. In addition, the IC50 under setting [2] is 0.0841 µM.
Take `Cc1cccnc1CN1C[C@H]2C[C@H](Nc3ccc(-c4c(C)cnn4C)nn3)C[C@H]2C1` [Compound 24, (3aR,5s,6aS)-N-[6-(2,4-dimethylpyrazol-3-yl)pyridazin-3-yl]-2-[(3-methyl-2-pyridyl)methyl]-3,3a,4,5,6,6a-hexahydro-1H-cyclopenta[c]pyrrol-5-amine]: the IC50 under setting [1] is 0.0378 µM. Also, the Emin (Table 9) is given as 5.36%.
In the case of `c1cc(N2CCCC2)nnc1N[C@H]1C[C@@H]2CN(CC3CCOCC3)C[C@@H]2C1` [Compound 192, (3aR,5s,6aS)-N-(6-pyrrolidin-1-ylpyridazin-3-yl)-2-(tetrahydropyran-4-ylmethyl)-3,3a,4,5,6,6a-hexahydro-1H-cyclopenta[c]pyrrol-5-amine], the “Human M4 Emin” value (Table 10) is 6%. The IC50 under setting [2] was 0.0406 µM.
The corresponding values for `CC(=O)Nc1ccc(-c2ccc(N[C@H]3C[C@@H]4CN(CC5CCOCC5)C[C@@H]4C3)nn2)cc1` [Compound 180, N-[4-[6-[[(3aR,5s,6aS)-2-(tetrahydropyran-4-ylmethyl)-3,3a,4,5,6,6a-hexahydro-1H-cyclopenta[c]pyrrol-5-yl]amino]pyridazin-3-yl]phenyl]acetamide] are 8% and 0.00117 µM.
As to `COc1ccc(F)cc1-c1ccc(N[C@H]2C[C@@H]3CN(CC4CCOCC4)C[C@@H]3C2)nn1` [Compound 212, (3aR,5s,6aS)-N-[6-(5-fluoro-2-methoxy-phenyl)pyridazin-3-yl]-2-(tetrahydropyran-4-ylmethyl)-3,3a,4,5,6,6a-hexahydro-1H-cyclopenta[c]pyrrol-5-amine], the “Human M4 Emin” value (Table 10) was found to be 5%. Also, under setting [2], the IC50 worked out at 0.000486 µM.
For `Cc1nn(C)cc1-c1ccc(N[C@H]2C[C@@H]3CN(CCC(C)(C)C)C[C@@H]3C2)nc1` [Compound 149, (3aR,5s,6aS)-2-(3,3-dimethylbutyl)-N-[5-(1,3-dimethylpyrazol-4-yl)-2-pyridyl]-3,3a,4,5,6,6a-hexahydro-1H-cyclopenta[c]pyrrol-5-amine] the same measures were 4% and 0.127 µM.
For `Cc1cnn(C)c1-c1ccc(NC[C@H]2C[C@@H]3CN(CCC(C)(C)C)C[C@@H]3C2)nn1` [Compound 61, N-[[(3aR,5s,6aS)-2-(3,3-Dimethylbutyl)-3,3a,4,5,6,6a-hexahydro-1H-cyclopenta[c]pyrrol-5-yl]methyl]-6-(2,4-dimethylpyrazol-3-yl)pyridazin-3-amine], the 50% inhibitory concentration (IC50) under setting [1] came to 0.0356 µM. Also, the Emin (Table 9) came out at 3.12%.
For `Clc1ccc(N[C@H]2C[C@@H]3CN(CC4CCOCC4)C[C@@H]3C2)nn1` [Compound 179, (3aR,5s,6aS)-N-(6-chloropyridazin-3-yl)-2-(tetrahydropyran-4-ylmethyl)-3,3a,4,5,6,6a-hexahydro-1H-cyclopenta[c]pyrrol-5-amine], where the note is “Table 10”, the “Human M4 Emin” value came out at 29%. For the same molecule, the IC50 (Table 10, μM) was more than 10 µM.
`CC(=O)Nc1ccc(-c2ccc(O[C@H]3C[C@@H]4CN(CC5CCCCC5)C[C@@H]4C3)nn2)cc1` [Compound 130, N-[4-[6-[[(3aR,5s,6aS)-2-(cyclohexylmethyl)-3,3a,4,5,6,6a-hexahydro-1H-cyclopenta[c]pyrrol-5-yl]oxy]pyridazin-3-yl]phenyl]acetamide]: the “Human M4 Emin” value (Table 10) was 3%. Besides, the IC50 under setting [2] is 0.0583 µM.
Consider `Cc1cnn(C)c1-c1ccc(N[C@H]2C[C@@H]3CN(Cc4ccccc4F)C[C@@H]3C2)nn1` [Compound 25, (3aR,5s,6aS)-N-[6-(2,4-dimethylpyrazol-3-yl)pyridazin-3-yl]-2-[(2-fluorophenyl)methyl]-3,3a,4,5,6,6a-hexahydro-1H-cyclopenta[c]pyrrol-5-amine], for which the IC50 under setting [1] is 0.193 µM. Where the note is “Table 9”, the Emin came to 4.92%.
`CS(=O)(=O)Nc1ccc(CN2C[C@H]3C[C@H](Nc4ccc(-c5cc(F)ccc5Cl)nn4)C[C@H]3C2)cc1` [Compound 172, N-[4-[[(3aR,5s,6aS)-5-[[6-(2-chloro-5-fluoro-phenyl)pyridazin-3-yl]amino]-3,3a,4,5,6,6a-hexahydro-1H-cyclopenta[c]pyrrol-2-yl]methyl]phenyl]methanesulfonamide]: the “Human M4 Emin” value (Table 10) is recorded as 3%. Further, the IC50 under setting [2] turned out to be 0.0427 µM.
The corresponding values for `CC(=O)Nc1ccc(-c2ccc(O[C@H]3C[C@@H]4CN(Cc5ncccc5C)C[C@@H]4C3)nn2)cc1` [Compound 133, N-[4-[6-[[(3aR,5s,6aS)-2-[(3-methyl-2-pyridyl)methyl]-3,3a,4,5,6,6a-hexahydro-1H-cyclopenta[c]pyrrol-5-yl]oxy]pyridazin-3-yl]phenyl]acetamide] are 5% and 1.07 µM.
With `Cc1cnn(C)c1-c1ccc(NCCC2C[C@@H]3CN(Cc4ccccc4F)C[C@@H]3C2)nn1` (stereo partly drawn) [Compound 127, N-[2-[(3aR,6aS)-2-[(2-fluorophenyl)methyl]-3,3a,4,5,6,6a-hexahydro-1H-cyclopenta[c]pyrrol-5-yl]ethyl]-6-(2,4-dimethylpyrazol-3-yl)pyridazin-3-amine], the IC50 under setting [1] worked out at 0.0578 µM. Under “Table 9”, the Emin is given as 4.93%.
For `Fc1ccc(Cl)c(-c2ccc(OCC3C[C@@H]4CN(Cc5ccccc5F)C[C@@H]4C3)nn2)c1` (stereo partly drawn) [Compound 115, (3aR,6aS)-5-[[6-(2-chloro-5-fluoro-phenyl)pyridazin-3-yl]oxymethyl]-2-[(2-fluorophenyl)methyl]-3,3a,4,5,6,6a-hexahydro-1H-cyclopenta[c]pyrrole] the same measures were 5.66 µM and 9.93%.
The corresponding values for `Cc1cnn(C)c1-c1ccc(NCCC2C[C@@H]3CN(CCC(C)(C)C)C[C@@H]3C2)nn1` (stereo partly drawn) [Compound 120, 6-(1,4-Dimethyl-1H-pyrazol-5-yl)-N-(2-((3aR,6aS)-2-(3,3-dimethylbutyl)octahydrocyclopenta[c]pyrrol-5-yl)ethyl)pyridazin-3-amine] are 0.002 µM and 3.48%.
Take `Fc1ccc(Cl)c(-c2ccc(N[C@H]3C[C@@H]4CN(Cc5cnc6ccccc6c5)C[C@@H]4C3)nn2)c1` [Compound 164, (3aR,5s,6aS)-N-[6-(2-chloro-5-fluoro-phenyl)pyridazin-3-yl]-2-(3-quinolylmethyl)-3,3a,4,5,6,6a-hexahydro-1H-cyclopenta[c]pyrrol-5-amine]: the “Human M4 Emin” value (Table 10) stood at 3%. Also, the IC50 under setting [2] stood at 0.065 µM.
The corresponding values for `Fc1cccc(Cl)c1-c1ccc(N[C@H]2C[C@@H]3CN(CC4CCOCC4)C[C@@H]3C2)nn1` [Compound 204, (3aR,5s,6aS)-N-[6-(2-chloro-6-fluoro-phenyl)pyridazin-3-yl]-2-(tetrahydropyran-4-ylmethyl)-3,3a,4,5,6,6a-hexahydro-1H-cyclopenta[c]pyrrol-5-amine] are 4% and 0.000432 µM.
For `Cc1nn(C)cc1-c1ccc(O[C@@H]2C[C@@H]3CN(CC4CCCOC4)C[C@@H]3C2)nn1` (stereo partly drawn) [Compound 51, (3aR,5r,6aS)-5-[6-(1,3-dimethylpyrazol-4-yl)pyridazin-3-yl]oxy-2-(tetrahydropyran-3-ylmethyl)-3,3a,4,5,6,6a-hexahydro-1H-cyclopenta[c]pyrrole], the IC50 under setting [1] is 7.85 µM. The Emin (Table 9) is recorded as 19.8%.
Take `Cc1nn(C)cc1-c1ccc(N[C@H]2C[C@@H]3CN(Cc4ccccc4)C[C@@H]3C2)nn1` [Compound 8, (3aR,5s,6aS)-2-benzyl-N-[6-(1,3-dimethylpyrazol-4-yl)pyridazin-3-yl]-3,3a,4,5,6,6a-hexahydro-1H-cyclopenta[c]pyrrol-5-amine]: the IC50 under setting [1] was determined as 0.01 µM. Further, the Emin (Table 9) was 3.22%.
For `Cc1nn(C)cc1-c1ccc(N[C@H]2C[C@@H]3CN(CC(C)C(C)(C)C)C[C@@H]3C2)nn1` (stereo partly drawn) [Compound 4, (3aR,5s,6aS)-N-[6-(1,3-dimethylpyrazol-4-yl)pyridazin-3-yl]-2-(2,3,3-trimethylbutyl)-3,3a,4,5,6,6a-hexahydro-1H-cyclopenta[c]pyrrol-5-amine] the same measures were 0.002 µM and 2.81%.
